# Measurements reported in the supplement of paper PMC10307832.
# How the values were obtained:
# Assay in all cases: relative viability (nuclei count vs DMSO), 5 days (fraction); higher = more cells survive
# BGJ398 + Olaparib = compound: CCN1CCN(c2ccc(Nc3cc(N(C)C(=O)Nc4c(Cl)c(OC)cc(OC)c4Cl)ncn3)cc2)CC1 [BGJ398] + O=C(c1cc(Cc2n[nH]c(=O)c3ccccc23)ccc1F)N1CCN(C(=O)C2CC2)CC1 [Olaparib] (partner 8 µM)
# Summary of the method: (§1)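 Lung cancer cell lines were seeded in 1536-well plates and dosed by pin tool the next day, with either a single drug or a fixed anchor-drug dose combined with five library-drug doses (not always all listed) spaced in √10 steps. Five days later, one step fixed the cells and stained their nuclei (final 0.05% Triton X-100, 1% formaldehyde, 1 ug/ml Hoechst), and nuclei were counted on 4× images. Relative viability is the nuclei count in treated wells divided by the count in vehicle wells, and each value is the median of duplicate plates.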
# BGJ398 + Tozasertib = compound: CCN1CCN(c2ccc(Nc3cc(N(C)C(=O)Nc4c(Cl)c(OC)cc(OC)c4Cl)ncn3)cc2)CC1 [BGJ398] + Cc1cc(Nc2cc(N3CCN(C)CC3)nc(Sc3ccc(NC(=O)C4CC4)cc3)n2)n[nH]1 [Tozasertib] (partner 0.1 µM)
# Summary of the method: as §1
# [1] = compound: C1=CC2=NC=CN=C2C=C1/C=C/3\C(=O)NC(=O)S3 + COc1cc2c(Oc3ccc(NC(=O)C4(C(=O)Nc5ccc(F)cc5)CC4)cc3F)ccnc2cc1OCCCN1CCOCC1 [Foretinib] (partner 0.25 µM)
# Summary of the method: as §1
# [2] = compound: C1=CC2=NC=CN=C2C=C1/C=C/3\C(=O)NC(=O)S3 + CS(=O)(=O)N1CCN(Cc2cc3nc(-c4cccc5[nH]ncc45)nc(N4CCOCC4)c3s2)CC1 [Pictilisib] (partner 1 µM)
# Summary of the method: as §1
Cell Line,relative viability (BGJ398 + Olaparib; first compound 0.01 µM),relative viability (BGJ398 + Olaparib; first compound 0.03162 µM),relative viability (BGJ398 + Olaparib; first compound 0.1 µM),relative viability (BGJ398 + Olaparib; first compound 0.3162 µM),relative viability (BGJ398 + Olaparib; first compound 1 µM),relative viability (BGJ398 + Tozasertib; first compound 0.01 µM),relative viability (BGJ398 + Tozasertib; first compound 0.03162 µM),relative viability (BGJ398 + Tozasertib; first compound 0.1 µM),relative viability (BGJ398 + Tozasertib; first compound 0.3162 µM),relative viability (BGJ398 + Tozasertib; first compound 1 µM),relative viability ([1]; first compound 0.02 µM),relative viability ([1]; first compound 0.06325 µM),relative viability ([1]; first compound 0.2 µM),relative viability ([1]; first compound 0.6325 µM),relative viability ([1]; first compound 2 µM),relative viability ([2]; first compound 0.02 µM),relative viability ([2]; first compound 0.06325 µM),relative viability ([2]; first compound 0.2 µM),relative viability ([2]; first compound 0.6325 µM),relative viability ([2]; first compound 2 µM)
NCI-H2342,0.517,0.46,0.541,0.482,0.444,0.415,0.49,0.655,0.536,0.505,0.891,0.93,1.02,0.953,0.891,–,–,–,–,–
SK-MES-1,0.709,0.754,0.786,0.659,0.679,0.87,0.892,0.829,0.785,0.857,0.875,1.05,0.976,0.804,0.669,0.385,0.391,0.375,0.353,0.335
HCC-366,0.368,0.378,0.422,0.335,0.448,0.128,0.111,0.092,0.0966,0.0852,0.916,–,0.863,0.901,0.985,0.151,0.0838,0.14,0.11,0.117
201T,0.907,0.791,0.858,0.822,0.843,1.05,0.877,0.965,0.914,0.91,0.866,0.977,1.12,1.06,0.758,0.606,0.799,0.712,0.666,0.573
HCC-827,0.468,–,0.583,0.482,0.628,0.325,–,0.441,0.363,0.401,1.09,1.05,1.02,0.95,1.04,1.13,0.938,0.996,0.845,0.969
NCI-H647,0.51,0.643,0.694,0.521,0.603,0.366,0.294,0.406,0.24,0.304,1.1,1.39,1.17,1.11,1.21,0.546,0.483,0.624,0.368,0.271
NCI-H2023,0.486,0.465,0.513,0.463,0.503,0.309,0.345,0.301,0.232,0.255,0.714,0.832,0.765,0.781,0.51,0.236,0.27,0.26,0.223,0.16
NCI-H520,0.265,0.355,0.314,0.202,0.238,0.424,0.421,0.321,0.273,0.271,0.71,0.719,0.846,0.674,0.648,0.306,0.356,0.32,0.242,0.246
RERF-LC-KJ,0.961,0.959,0.969,0.917,0.92,0.455,0.558,0.479,0.441,0.533,0.831,0.825,0.874,0.814,0.695,0.502,0.457,0.492,0.518,0.482
A-427,0.746,0.713,0.761,0.736,0.538,0.192,0.153,0.162,0.179,0.152,1.08,1.11,1.13,1.01,1.06,0.711,0.685,0.788,0.675,0.679
NCI-H441,–,0.619,0.483,0.555,0.536,0.702,0.652,0.529,0.615,0.687,0.925,1.09,1.06,0.925,0.668,0.453,0.48,0.447,0.573,0.477
NCI-H1703,0.342,0.396,0.379,0.364,0.543,–,–,–,–,–,0.38,0.442,0.34,0.295,0.324,0.241,0.318,0.187,0.243,0.232
NCI-H1792,0.494,0.351,0.281,0.607,0.282,–,–,–,–,–,–,–,–,–,–,0.26,0.16,0.341,0.214,0.296
Calu-6,0.599,0.605,0.578,0.58,0.59,–,–,–,–,–,0.848,0.866,0.843,0.864,0.928,0.923,1.15,1.04,0.989,0.973
SK-LU-1,0.461,0.579,0.539,0.348,0.329,0.354,0.34,0.312,0.284,0.222,0.861,0.968,0.751,0.785,0.791,0.703,0.695,0.583,0.577,0.506
PC-3 [JPC-3],1.12,–,1.26,–,1.15,0.958,–,0.867,0.829,0.842,0.997,1.14,1.02,1,1.06,0.687,0.881,0.594,0.65,0.8
EMC-BAC-2,0.456,0.568,0.519,0.547,0.456,0.28,0.314,0.3,0.276,0.312,1.04,1.07,1.05,0.903,0.923,0.431,0.552,0.563,0.482,0.463
LK-2,0.624,0.532,0.374,0.186,0.227,0.202,0.168,0.157,0.149,0.173,1.06,1.16,1.26,1.03,0.789,0.678,0.587,0.596,0.497,0.392
NCI-H2126,0.953,0.864,0.964,0.865,0.918,0.892,0.825,0.911,0.927,0.868,0.917,0.987,1.2,1.11,0.745,0.448,0.56,0.498,0.474,0.411

Cell Line,relative viability (BGJ398 + Olaparib; first compound 0.01 µM),relative viability (BGJ398 + Olaparib; first compound 0.03162 µM),relative viability (BGJ398 + Olaparib; first compound 0.1 µM),relative viability (BGJ398 + Olaparib; first compound 0.3162 µM),relative viability (BGJ398 + Olaparib; first compound 1 µM),relative viability (BGJ398 + Tozasertib; first compound 0.01 µM),relative viability (BGJ398 + Tozasertib; first compound 0.03162 µM),relative viability (BGJ398 + Tozasertib; first compound 0.1 µM),relative viability (BGJ398 + Tozasertib; first compound 0.3162 µM),relative viability (BGJ398 + Tozasertib; first compound 1 µM),relative viability ([1]; first compound 0.02 µM),relative viability ([1]; first compound 0.06325 µM),relative viability ([1]; first compound 0.2 µM),relative viability ([1]; first compound 0.6325 µM),relative viability ([1]; first compound 2 µM),relative viability ([2]; first compound 0.02 µM),relative viability ([2]; first compound 0.06325 µM),relative viability ([2]; first compound 0.2 µM),relative viability ([2]; first compound 0.6325 µM),relative viability ([2]; first compound 2 µM)
NCI-H3122,0.628,0.611,0.661,0.596,0.654,0.383,0.403,0.377,0.407,0.379,0.963,0.985,0.917,0.867,0.96,0.697,0.487,0.578,0.547,0.364
NCI-H1975,0.809,0.856,0.887,0.825,0.781,0.774,0.758,0.695,0.5,0.415,0.904,1.03,0.992,0.866,0.84,0.268,0.298,0.314,0.246,0.226
NCI-H1944,0.432,0.416,0.425,0.385,0.445,0.237,0.244,0.229,0.27,0.273,0.814,0.78,0.885,0.795,0.903,0.284,0.349,0.367,0.319,0.297
LU99A,0.266,0.26,0.281,0.276,0.292,0.286,0.282,0.261,0.197,0.265,0.727,0.743,0.792,0.822,0.614,0.33,0.365,0.317,0.341,0.245
SW 1573,0.413,0.388,0.45,0.543,0.525,0.182,0.171,0.185,0.189,0.171,0.893,1.22,0.911,0.804,0.487,0.525,0.511,0.524,0.555,0.441
NCI-H2347,0.539,0.546,0.553,0.631,0.63,0.698,0.575,0.515,0.621,0.567,0.843,0.77,0.948,0.86,0.634,0.706,0.609,0.748,0.527,0.757
NCI-H2009,0.614,0.759,0.697,0.718,0.682,0.732,0.761,0.733,0.734,0.697,1.21,1.22,1.3,1.28,1.12,0.859,0.891,0.964,0.712,0.744
HCC-15,0.699,0.749,0.712,0.732,0.725,0.351,0.43,0.436,0.349,0.389,0.981,1.02,1.01,1.03,0.928,0.765,0.787,0.86,0.665,0.754
HCC-44,0.963,0.952,1.02,0.931,0.953,0.77,0.947,1.07,1.1,0.698,–,–,–,–,–,0.615,0.563,0.593,0.552,0.514
NCI-H1299,0.961,0.971,0.977,1,0.999,–,–,–,–,–,1.01,1.11,1.11,1.09,1.15,0.753,0.925,0.931,0.762,0.85
NCI-H1648,0.658,–,1.18,0.85,0.487,0.304,0.58,0.469,0.399,0.44,–,–,–,–,–,–,–,–,–,–
NCI-H1563,–,–,–,–,–,–,–,–,–,–,0.901,0.979,0.914,0.895,0.943,0.663,0.659,0.691,0.635,0.634
A549,0.341,0.436,0.6,0.231,0.231,–,–,–,–,–,0.965,1.05,0.889,0.835,0.984,0.518,0.646,0.453,0.555,0.464
NCI-H522,0.714,0.684,0.607,0.651,0.621,0.5,0.552,0.445,0.586,0.483,–,–,–,–,–,–,–,–,–,–
NCI-H1623,–,–,–,–,–,0.427,0.407,0.448,0.455,0.447,0.756,0.855,0.953,0.82,0.799,–,–,–,–,–
SW 900,0.867,0.822,0.851,0.679,0.761,0.55,0.552,0.495,0.484,0.429,0.703,0.823,0.77,1.06,0.797,–,–,–,–,–
IA-LM,0.772,0.841,0.917,0.742,0.79,–,–,–,–,–,1.15,1.28,1.15,1.2,1.25,–,0.524,0.308,0.333,0.286
EBC-1,0.717,0.717,0.679,0.737,0.668,–,–,–,–,–,–,0.105,0.0907,0.0919,0.11,0.407,0.518,0.42,0.413,0.459
